The values that follow are results of earlier work, collected in patent publication US20130064803A1, “BIO-REPLENISHMENT (BioRep) FOR COGNITIVE HEALTH” (Naidu LP, priority 2011, published 2013).

The conditions of data set [1]: in vivo.

Take `N[C@@H](Cc1c[nH]c2ccc(O)cc12)C(=O)O` [5-HTP, 5-hydroxy-tryptophan]: the “share of an oral dose ending up in the bloodstream” value is listed as “about 70%”.
As for `C[S+](CC[C@H](N)C(=O)O)C[C@H]1O[C@@H](n2cnc3c(N)ncnc32)[C@H](O)[C@@H]1O` (some centres unmarked) [SAMe, S-adenosylmethionine], the “first-pass, share metabolized in the liver” value in data set [1] is “approximately 50%”.
